# Measured values: US6908930B2, “4-substituted 7-AZA-indolin-2-ones and their use as protein kinase inhibitors” (Sugen, Inc., priority 1999, dated 2005)
# Columns and labels:
# HER-2 = molecular target: T1, HER-2 (Homo sapiens, UniProt P04626); test: Assay for modulation of HER-2 activity in whole cells (ELISA); type: cell-based; settings: EGFR/HER-2chimera/#T3-C7 cell lines, EGF stimulated; read-out: HER-2 kinase IC50
# T1 construct: expressed in mouse 3T3 (clone C7) cells; P00533 (Epidermal growth factor receptor)
# Description: Using the following reagents, supplies, and method, the ability of compounds of the invention to affect the activity of HER-2 in whole cells in an ELISA format can be assigned.
# EGFR/HER-2chimera/#T3-C7 cell lines are used for this assay. Choose dishes having 80-90% confluence for the experiment. Collect cells by trypsinization and centrifuge at 1000 rpm at room temperature for 5 minutes.
# Resuspend cells in starve medium and count with trypan blue. Only viability above 90% is acceptable. Seed cells in starve medium at a density of 2,500 cells per well, 90 μL per well, in a 96 well microtiter plate. Incubate seeded cells in 5% CO2 at 37° C. overnight. Start the assay two days after seeding.
# Samples are diluted directly into a polypropylene plate containing starve-DMEM (non-sterile is okay). This dilution will be 1:10 or greater, depending on the samples being screened. The same amount of DMSO is put into the control wells. […] are then transferred to the cell plate at a 1:10 dilution (10 μL of sample and media into 90 μL of starve media). The final DMSO concentration will be 1% or lower.
# Ten samples are put into wells 2-11 of row A of the NUNC 96 well polypropylene plate. These wells contain straight starve-DMEM. For a 1:10 dilution, one would put 10 μL of drug into 90 μL of media. The rest of the wells (including the controls) will have a DMSO/media mixture. The percentage of DMSO in this mixture is determined by the first dilution factor, in this case 1:10. The DMSO concentration is therefore 10%. An equal amount of drug and media from row A is put into row B, containing DMSO and media. The same amount is then taken out and put into row C. This is repeated for all rows. These are 1:2 dilutions. All wells are then transferred to the cell plate at a 1:10 dilution (10 μL of sample and media into 90 μL of starve-DMEM. The final DMSO concentration will be 1% or lower. […]
# After a 2 hour incubation with the drug, add prepared EGF ligand to cells at 50 μL per well, for a final concentration of 50 nM. Positive control wells (8) receive the same amount of EGF. […] Incubate at 37° C. for 10 minutes.
# Remove drug, EGF, and DMEM by dumping in sink. Wash cells once with PBS.
# Transfer HNTG* to cells, 100 μL per well. Place on ice for 5 minutes. Meanwhile, remove blocking buffer from ELISA plate and wash as described above. With a pipette tip securely fitted to a micropipettor, scrape cells from plate and homogenize cell material by repeatedly aspirating and dispensing the HNTG* lysis buffer. Transfer lysate to a coated, blocked, washed ELISA plate. Alternatively, one may use a Costar transfer cartridge to transfer lysate to the ELISA plate. Incubate, shaking, at room temperature for one hour.
# Remove lysate by dumping in sink, then wash as described earlier. Transfer freshly diluted anti-phosphotyrosine (anti-Ptyr) antibody (1:3000 in TEST) to ELISA plate, 100 μL per well. Incubate, shaking, at room temperature, for 30 minutes.
# Remove anti-Ptyr antibody by dumping in sink, then wash as described earlier. Transfer freshly diluted BIOSOURCE antibody to ELISA plate, (1:8000 in TEST), 100 μL per well. Incubate, shaking, at room temperature for 30 minutes.
# Remove BIOSOURCE antibody by dumping in sink, then wash as described earlier. Transfer freshly prepared ABTS/H2O2 solution to ELISA plate, […]. Incubate 5-10 minutes while shaking. Remove any bubbles and if necessary, stop reaction with the addition of 100 μL of 0.2 M HCl per well.
# Read assay on Dynatech MR7000 ELISA reader. Test Filter: […]; Reference Filter: […]. A preferred template for the placement of controls in this experiment is provided below: […]
# EGFR = molecular target: T2, EGFR (Homo sapiens, UniProt P00533); test: Assay for modulation of EGFR activity (ELISA); type: biochemical; settings: read-out: bio EGFR IC50
# T2 construct: A431 […] cell lysate is stored at −80° C; host or cells: A431 cell lysate
# Description: Using the following reagents, supplies, and method, the ability of compounds of the invention to modulate the in vitro activity of EGFR can be readily determined in an ELISA.
# A431 […] cell lysate is stored at −80° C.
# ATP/MnCl2 phosphorylation mix is prepared by adding 300 μL of 1.0 mM ATP and […] of 1M MnCl2 to 9.2 mL of dH2O and mixing. Ten mL of phosphorylation mix is enough for about 6 assay plates. Note that the mixture should be made fresh and kept on ice immediately before use, and that although the preferred ATP is fresh from powder stock, any remaining stock solution of ATP may be frozen at −20° C. in small aliquots to be used at a later time.
# Coat Corning 96 well ELISA plates with 0.5 μg per well with SUMO1 in a volume of 100 μL PBS overnight, at 4° C. Remove unbound SUMO1 from wells by inverting plate to remove liquid. Wash 1× with distilled H2O by filling wells. Pat the plate on a paper towel to remove excess liquid.
# Add 150 μL of Blocking Buffer to each well. Incubate for 30 minutes at room temperature, with shaking. Wash plate 3× with deionized water, then once with TBST. Pat plate on a paper towel to remove excess liquid and bubbles.
# Dilute lysate in PBS (7 μg lysate/[…]) and add 100 μL of diluted lysate to each well. Shake at room temperature for 60 minutes. Wash 1× with distilled H2O by filling wells. Pat the plate on a paper towel to remove excess liquid.
# Add 120 μL TBST to ELISA plate containing captured EGFR.
# Dilute drugs/extracts 1:10 (unless specified otherwise) in TBST in 96-well polypropylene plates. (i.e., 10 μL compound+90 μL TBST). Add 13.5 μL diluted drugs/extracts to ELISA plate. […] Incubate for 30 minutes while shaking at room temperature.
# Approximately 150 μL final volume in well with 3 uM ATP/5 mM MnCl2 final concentration in well. Incubate 5 minutes while shaking. Note that this is a timed event. It is critical that ATP/MnCl2 phosphorylates the receptor for only 5 minutes. It is best to add the ATP/MnCl2 with an automated 96 place pipettor workstation, then 5 minutes later stop the reaction with EDTA using the same workstation. Alternatively, addition can be performed using a 12 channel pipettor 1 row at a time, leaving 20 seconds between each row so that the reaction may be stopped with EDTA exactly 5 minutes later (this depends on the number of plates being phosphorylated in one batch). Shake between each addition.
# […] This is done using either the same work station as above, or the same timing method employed with the 12 channel pipettor. After the EDTA has been added, shake for 1 minute. Wash 4× with deionized water, twice with TBST.
# Add 100 μL per well of anti-phosphotyrosine (1:3000 dilution in TBST). Incubate 30-45 minutes at room temperature, with shaking. Wash 1× with distilled H2O by filling wells. Pat the plate on a paper towel to remove excess liquid.
# Incubate 30 minutes at room temperature, with shaking. Wash 1× with distilled H2O by filling wells. Pat the plate on a paper towel to remove excess liquid.
# Add 100 μL of ABTS/H2O2 solution to each well. Incubate 5 to 10 minutes while shaking. Remove any bubbles. If necessary stop reaction with the addition of 100 μL of 0.2M HCl per well.
# Read assay on Dynatech MR7000 ELISA reader.
# T1 sequence (P04626 720-987 limits assumed): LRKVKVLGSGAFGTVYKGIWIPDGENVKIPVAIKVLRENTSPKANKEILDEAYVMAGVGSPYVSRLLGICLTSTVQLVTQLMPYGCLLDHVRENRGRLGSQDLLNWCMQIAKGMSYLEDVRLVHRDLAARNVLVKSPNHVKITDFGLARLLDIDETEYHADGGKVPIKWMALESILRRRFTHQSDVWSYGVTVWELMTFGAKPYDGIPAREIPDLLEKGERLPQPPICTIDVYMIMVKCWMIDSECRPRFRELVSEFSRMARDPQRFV
# T2 sequence (P00533 25-1210): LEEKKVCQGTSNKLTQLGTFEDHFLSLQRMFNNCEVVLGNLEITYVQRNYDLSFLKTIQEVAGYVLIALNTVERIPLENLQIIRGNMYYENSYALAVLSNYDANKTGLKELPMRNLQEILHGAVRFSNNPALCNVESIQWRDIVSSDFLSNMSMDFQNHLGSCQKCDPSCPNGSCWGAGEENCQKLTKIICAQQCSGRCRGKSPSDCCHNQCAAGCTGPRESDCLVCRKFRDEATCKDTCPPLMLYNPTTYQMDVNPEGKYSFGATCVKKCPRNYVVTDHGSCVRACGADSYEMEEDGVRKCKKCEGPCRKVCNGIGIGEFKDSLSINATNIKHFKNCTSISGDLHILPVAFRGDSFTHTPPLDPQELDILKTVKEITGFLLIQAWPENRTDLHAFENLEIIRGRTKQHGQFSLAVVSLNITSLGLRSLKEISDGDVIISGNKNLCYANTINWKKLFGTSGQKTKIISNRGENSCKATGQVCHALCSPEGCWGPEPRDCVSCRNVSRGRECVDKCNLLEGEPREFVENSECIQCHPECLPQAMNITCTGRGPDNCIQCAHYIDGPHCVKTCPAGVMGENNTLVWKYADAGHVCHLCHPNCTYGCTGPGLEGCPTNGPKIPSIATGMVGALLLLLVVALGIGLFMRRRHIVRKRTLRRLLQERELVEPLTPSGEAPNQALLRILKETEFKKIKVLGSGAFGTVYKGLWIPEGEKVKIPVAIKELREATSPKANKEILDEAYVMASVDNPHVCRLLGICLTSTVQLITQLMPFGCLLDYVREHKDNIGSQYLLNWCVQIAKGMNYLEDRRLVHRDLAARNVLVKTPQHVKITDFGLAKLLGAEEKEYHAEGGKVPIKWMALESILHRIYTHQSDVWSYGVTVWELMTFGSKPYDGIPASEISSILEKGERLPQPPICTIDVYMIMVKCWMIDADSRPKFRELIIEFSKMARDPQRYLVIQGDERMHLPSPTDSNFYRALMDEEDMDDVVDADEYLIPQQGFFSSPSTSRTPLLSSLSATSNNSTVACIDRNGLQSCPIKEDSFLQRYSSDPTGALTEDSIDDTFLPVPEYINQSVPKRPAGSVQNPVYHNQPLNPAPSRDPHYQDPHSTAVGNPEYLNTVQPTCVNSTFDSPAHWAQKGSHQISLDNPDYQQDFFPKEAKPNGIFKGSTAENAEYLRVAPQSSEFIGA
SMILES,IC50 (HER-2) [nM],IC50 (EGFR) [nM]
CCN(CC)CCNC(=O)c1c(C)[nH]c(/C=C2\C(=O)Nc3ncnc(Nc4ccc(F)c(Cl)c4)c32)c1C [Formula 28],160,210
Cc1[nH]c(/C=C2\C(=O)Nc3ncnc(Nc4ccc(F)c(Cl)c4)c32)c(C)c1CC(=O)O [Formula 51],860,38
Cc1cc(CCC(=O)O)[nH]c1/C=C1\C(=O)Nc2ncnc(Nc3ccc(F)c(Cl)c3)c21 [Formula 49],1800,5
Cc1cc(/C=C2\C(=O)Nc3ncnc(Nc4ccc(F)c(Cl)c4)c32)[nH]c1C(=O)N1CCN(C)CC1 [Formula 35],590,400
Cc1cc(CCC(=O)N2CCN(C)CC2)[nH]c1/C=C1\C(=O)Nc2ncnc(Nc3ccc(F)c(Cl)c3)c21 [Formula 25],11900,58
Cc1cc(C(=O)NCCN2CCOCC2)[nH]c1/C=C1\C(=O)N(C)c2ncnc(Nc3ccc(F)c(Cl)c3)c21 [Formula 32],18700,7140
